Read-outs that look alike come from different tables or passages of the source.
Legend:
[1] = system: transitional cell carcinoma of the bladder; test: Planar scintigraphy of MNU-induced bladder cancer; type: in vivo, Fisher 344 rats; conditions: day 3, intravesical
Procedure: The carcinogen N-methyl-N-nitrosourea (MNU), known to induce transitional cell carcinoma of the bladder, was instilled directly into the bladder lumen of 4-to-5-week old female Fisher 344 rats (20 animals) via bladder catheterization using a 22-gauge angiocatheter (1.5 mg/0.15 ml saline intravesically, every other week for a total of 4 doses). The drinking water was supplemented with a combination of trimethoprim-sulfamethoxasole, neomycin sulfate and polymixin B. Twelve to sixteen weeks after the last MNU infusion, the bladder was catheterized and emptied and [^125 I/^131 I ]IUdR (6. 4 to 10. 9 MBq [^125 I]IUdR [172 to 294 μCi] and 10.7 MBq [^131 I ]IUdR [290 μCi]) was administered through the catheter in a 100- or 200- μl volume and left in place for 2 h. The bladder contents were then withdrawn and the bladder rinsed with normal saline (5×1-ml). Nontumor-bearing control rats (16 animals) were injected by the same route with identical amounts of [^125 I/^131 I]IUdR. The drinking water of all animals was supplemented with 0. 1% potassium iodide from 48 to 72 h prior to the administration of the radiopharmaceutical up to the time of sacrifice. The tumor-bearing rats and the non-tumor bearing control rats were divided into Group A consisting of 12 tumor-bearing and 12 control rats, and Group B consisting of 8 tumor-bearing and 4 control rats. […]

[2] = system: murine ovarian tumor (MOT); test: Antineoplastic effect (survival fraction, median survival) in mouse ascites tumor; type: in vivo, C3HeB/FeJ mice
Description: 2. ^125 IUdR Is an Effective Antineoplastic Agent In A Mouse Ascites Tumor. The tumor used in these experiments is the same murine ovarian tumor described above. We have determined the median survival of mice after i.p. challenge with various tumor cell inocula.
The relatively long survival of tumor-bearing mice facilitates quantitative evaluation of tumor cell killing after treatment with ^125 IUdR and can be used to calculate a cellular survival fraction.

[3] = mouse; unincorporated IUdR; cited from earlier work
[4] = humans; unincorporated IUdR; cited from earlier work
[5] = system: transitional cell carcinoma of the bladder; type: in vivo, Fisher 344 rats
Description: No carrier added [^125 I/^131 I] IUdR was synthesized as described previously, see U.S. Pat. No. 4,851,520 hereby incorporated by reference, and purified on a C18 reverse phase HPLC column. The radiochemical purity of the product was>99% as determined by TLC with specific activities of 81.40 TBq/mmol and 96.94 GBq/mmol for [^125 I] IUdR and [^131 I] IUdR, respectively.
The carcinogen N-methyl-N-nitrosourea (MNU), known to induce transitional cell carcinoma of the bladder, was instilled directly into the bladder lumen of 4-to-5-week old female Fisher 344 rats (20 animals) via bladder catheterization using a 22-gauge angiocatheter (1.5 mg/0.15 ml saline intravesically, every other week for a total of 4 doses). […]
The biodistribution studies were conducted at 48 hours and at 1 week after administration of radiolabeled IUdR in order to quantitate the in vivo distribution of the radiopharmaceutical in terms of percent injected dose per gram of tissue (%ID/g) and to derive tumor to normal tissue ratios. Various organs and tissues of interest were excised, rinsed, blotted dry, weighed, and their radioactive content was determined in a gamma counter along with that of urine, stomach contents, blood and bone marrow.

DNA = test: Microautoradiography of bladder, intestine and bone marrow; type: in vivo, Fisher 344 rats
Procedure: The carcinogen N-methyl-N-nitrosourea (MNU), known to induce transitional cell carcinoma of the bladder, was instilled directly into the bladder lumen of 4-to-5-week old female Fisher 344 rats (20 animals) via bladder catheterization using a 22-gauge angiocatheter (1.5 mg/0.15 ml saline intravesically, every other week for a total of 4 doses). The drinking water was supplemented with a combination of trimethoprim-sulfamethoxasole, neomycin sulfate and polymixin B. Twelve to sixteen weeks after the last MNU infusion, the bladder was catheterized and emptied and [^125 I/^131 I ]IUdR (6. 4 to 10. 9 MBq [^125 I]IUdR [172 to 294 μCi] and 10.7 MBq [^131 I ]IUdR [290 μCi]) was administered through the catheter in a 100- or 200- μl volume and left in place for 2 h. The bladder contents were then withdrawn and the bladder rinsed with normal saline (5×1-ml). Nontumor-bearing control rats (16 animals) were injected by the same route with identical amounts of [^125 I/^131 I]IUdR. The drinking water of all animals was supplemented with 0. 1% potassium iodide from 48 to 72 h prior to the administration of the radiopharmaceutical up to the time of sacrifice. The tumor-bearing rats and the non-tumor bearing control rats were divided into Group A consisting of 12 tumor-bearing and 12 control rats, and Group B consisting of 8 tumor-bearing and 4 control rats. Group A was sacrificed 48 hours after administration of the radiopharmaceutical while Group B was sacrificed one (1) week after administration of the radiopharmaceutical.
The specificity of targeting and the DNA-incorporation of [^125 I]IUdR were determined by microautoradiography. The distribution and frequency of grains were assessed over the entire section and compared to the histopathologic findings. At the time of the biodistribution studies, the small intestine and the large intestine were quickly frozen in isopentane and liquid nitrogen. Bone marrow smears were fixed in 100% methanol. After rinsing with normal saline, the bladder was fixed in situ with 10% buffered formaldehyde, excised, and subsequently embedded in paraffin. The tissues were then sectioned (5-7 μm thickness), fixed (except for the bladder sections already fixed in vivo) and processed for autoradiography as were the bone marrow smears.
The tissue sections and bone marrow slides were coated with NTB2 emulsion (Kodak) and stored desiccated at 4° C. in light-tight boxes. After various times of emulsion exposure (up to 7 months), the autoradiographic slides were developed for 3 min in D-19 developer (Kodak) and fixed for 5 min in D-11 fixer (Kodak). Finally, the tissue sections were washed in distilled water, stained with hematoxylin/eosin, dehydrated, cleared, and mounted in Permount. Bone marrow slides were stained with Giemsa stain. Tissue and bone marrow slides were then examined under light microscopy.

9 L gliosarcoma [6] = test: Scintigraphic imaging of brain tumors after intratumor injection; conditions: control animals; images 12-38 h
[7] = system: murine ovarian tumor (MOT); test: Scintigraphic imaging of ovarian tumor-bearing mice; type: in vivo, C3HeB/FeJ mice; conditions: later than 1 h (2, 16, 24 hr); 300 μCi
9 L gliosarcoma [8] = test: Biodistribution 40 h after injection in brain tumor-bearing rats

O=c1[nH]c(=O)n([C@H]2C[C@H](O)[C@@H](CO)O2)cc1I [[^131 I]IUdR, 5-iodo-2'-deoxyuridine]
scintigraphic activity in normal animals [1]: virtual absence of activity in normal animals
scintigraphic activity in tumor-bearing animals [1]: only visible area of activity remaining in the tumor-bearing animals was over the region of the bladder
decrease in survival ([2]; equivalent doses, 131I label): does not result in any decrease in survival

O=c1[nH]c(=O)n([C@H]2C[C@H](O)[C@@H](CO)O2)cc1I [IUdR, 5-Iodo-2'-deoxyuridine]
half-life in circulation [3]: less than seven
half-life in circulation [4]: less than five

O=c1[nH]c(=O)n([C@H]2C[C@H](O)[C@@H](CO)O2)cc1I [^125 IUdR, 5-iodo-2'-deoxyuridine]
percent injected dose per gram of bladder, tumor-bearing vs control ([5]; 48 h): significant difference
permeation to the systemic circulation ([5]; rat, not told): very low
penetration into the bladder wall (DNA; animals with infection/inflammation): potential for radiolabeled IUdR to penetrate deep within the bladder wall
uptake in squamous metaplasia and bacteria (DNA; basal layer of squamous metaplasia, bacteria when active infection present): Uptake was also observed in the basal layer of squamous metaplasia and in bacteria when active infection was present
cell-associated silver grains in bone marrow smears (DNA; bone marrow): free of cell-associated silver grains
uptake in the urothelium of control animals (DNA; control animals): did not show uptake in the urothelium
autoradiographic uptake by the tumor (DNA; hyperplasia and papillary carcinoma stages): uptake of radiolabeled IUdR by the tumor at the early stage of tumor development, i.e. the hyperplasia stage, as well as in the later papillary carcinoma stage
silver grains in actively dividing normal epithelia (DNA; rat, in vivo): did not show the presence of silver grains
silver grains in normal urothelium (DNA; rat, in vivo): generally free of silver grains
DNA incorporation by abnormal urothelium vs normal (DNA; tumor-bearing animals): always significantly higher
tumor cell survival fraction (plateau) ([2]; seven consecutive injections): 10^-5

O=c1[nH]c(=O)n([C@H]2C[C@H](O)[C@@H](CO)O2)cc1I [^123 IUdR, 5-iodo-2'-deoxyuridine]
clearance of activity from the head (9 L gliosarcoma [6]): clearance of the activity from the head of all control animals by 12 h
focal area of abdominal activity, later time points [7]: persisted only in MOT-bearing mice while it cleared from the abdomen of animals without tumor
injected dose found in tumor (9 L gliosarcoma [8]; one animal, tumor occupied large portion of right brain specimen): 25 % of the injected dose
injected dose per gram, right brain (injected side), sham-operated (9 L gliosarcoma [8]; sham-operated controls, mean±SD): 0.09±0.02 %ID/g
injected dose per gram, right brain (injected side), tumor-bearing (9 L gliosarcoma [8]; tumor-bearing animals, mean±SD, P<0.05 vs sham): 0.36±0.14 %ID/g
survival fraction of tumor cells as a function of dose ([2]; 5 i.p. injections, 4 h intervals): an exponential decrease is obtained similar to that observed with the ^125 IUdR data
median survival of tumor-bearing animals ([2]; 5 i.p. injections, 4 h intervals, 24 h post tumor inoculation): prolongs median survival of the tumor-bearing animals (FIG. 7 of the incorporated patent) in a dose-dependent fashion

From patent US5308605A, “Diagnosis of tumors with 5-radioiodo-2'-deoxyuridine” (priority 1992, dated 1994)
